Assay results from patent publication US20080071190A1, “Timing of Ovulation Based on Vaginal Ph” (priority 2004, published 2008).
Marks after values point to notes of the source that are not given here.

Legend:
[1] = system: hECE cells (Human Ectocervical-Vaginal Epithelial Cells); assay: Determinations of extracellular pH (pHo) in luminal and contra-luminal solutions of hECE cells cultured on filters; assay type: cell-based; settings: for effect on luminal pHo (specificity of estrogen effect): hormone at 10 nM, FIG. 8A; for effect of co-treatment on estrogen-induced decrease in luminal pHo: hECE cells in steroid-free medium + 10 nM 17β-estradiol; for effect of co-treatment on estrogen-induced decrease in luminal pHo / effect on contra-luminal pHo: tamoxifen 10 μM; for effect of co-treatment on estrogen-induced decrease in luminal pHo / effect on luminal pHo, alone / effect on contra-luminal pHo: ICI-182780 10 μM; for effect of co-treatment on estrogen-induced decrease in luminal pHo / effect on luminal pHo, alone: progesterone 1 μM; for effect on luminal pHo, alone: without 17β-estradiol; for effect on contra-luminal pHo: progesterone 1 μM (not shown); for effect on estrogen-induced acidification of the luminal pHo: 10 nM 17β-estradiol, 30 min pre-treatment, bafilomycin A1 1 μM, ouabain 1 μM (contra-luminal), omeprazol 100 μM, FIG. 10
Description: Referring to FIG. 4A, hECE cells or Human Endocervical Cells were plated on Anocell filters (Anocel™-10, Oxon, UK, obtained through Sigma Chemicals, St. Louis, Mo.), which are ceramic-base filters, pore size of 0.02 μm width, 50 μm depth, and surface area of 0.6 cm^2. Filters 300 and 302 were coated with 4 μg/cm^2 collagen type IV and incubated at 37° C. overnight. The remaining collagen solution was aspirated and the filter was dried at 37° C. Before plating, filters 300 were rinsed 3 times with Hanks' Balanced Salt Solution. Cells were plated either on the upper surface 302 of one filter 300 (for determinations of luminal pHo) or on the bottom surface 304 of the other filter 300 (for determinations of the contra-luminal pHo) at 3·10^5 cells/cm^2. By plating at this relatively high density the cultures became confluent within 12 hours after plating.
Plates containing the filters were placed in a tissue culture incubator (37° C.), and pHo changes in the luminal and contra-luminal solutions were determined using AMANI-1000 microcombination pH electrodes 306 (Harvard Apparatus, Holliston, Mass., obtained through Genomics Solutions, Ann Harbor, Mich.). The AMANI-1000 pH sensor (stored in pH 7.0) is based on metal-metal oxide pH measurements and the pH sensitive layer is immobilized on plastic. The reference electrode employs an Ag/AgCl in 3.4 M KCl reference electrode, and the reference electrode junction is leak-free ensuring no leaks of KCl out of the reference electrode. The design of the pH electrodes 306 enabled their use for the purpose of the present experiments: tip diameter of 1 mm, depth of immersion 1 mm, and response time of less than 5 sec.
Electrodes 306 attached to a stand were held stable with the tip immersed in the solution within the upper compartment of the filter to a depth of about 2 mm avoiding direct contact between the electrode tip and the cultured cells. The electrodes were connected directly to a pH meter 310 (e.g., Accumet pH meter 910) (Fisher Scientific, Suwanee Ga.). After stabilization, the luminal and contraluminal solutions were gently aspirated using glass pipette, and replaced with fresh warmed (37° C.) Basic Salt Solution containing (in mM) NaCl (140), KCl (5), MgCl2 (1), CaCl2 (1), glucose (10), and 0.1% bovine serum albumin, pH 7.4. The volumes in the luminal and contraluminal compartments were 150 μl and 500 μl, respectively. Determinations of changes in pHo were made at time 0, and at 5 min intervals thereafter for up to 30 min.
To remove intracellular estrogens cells were grown in steroid-free medium as described. This procedure involved shifting cells on filters for three days prior to pHo assays to a medium composed of phenol-red-deficient (DMEM)/Ham's F12 or (Sigma Chemicals, St. Louis, Mo.) containing 8% heat inactivated fetal bovine serum that was previously treated with charcoal to remove steroids. Preparation of charcoal-treated serum was described; briefly, dextran-coated charcoal (Sigma Chemicals, St. Louis, Mo.) was dissolved at 8% in 0.15 M NaCl, autoclaved, mixed by stirring, spun and the pellet was resuspended as 1 gm/1.25 ml in H2O. Fetal bovine serum (Hyclone, Logan, Utah) was mixed with the activated charcoal-dextran at 20:1 (Vol:Vol) and incubated for 45 min at 55° C. At the completion of incubation the mixture was spun twice at 800 g for 20 min and the supernatant (serum) was decanted and collected. For experiments, cells were shifted to steroid-free medium for 3 days; alternatively, cells were shifted to the steroid-free medium for 24 hrs and treated with 17β-estradiol for two additional days.

hECE cells = assay: Cell-vitality staining (MTT assay); assay type: cell-based, human; settings: for hECE cell vitality (MTT staining normalized to OD570 of control unperturbed cells), Baseline / hECE cell vitality (MTT staining normalized to OD570 of control unperturbed cells), 30 min pHo: means ±SD; for hECE cell vitality (MTT staining normalized to OD570 of control unperturbed cells), 30 min pHo: after 30 min pHo measurement
Description: Cell-vitality staining was done using the 3-[4,5-dimethylthiazol-2-yl]-2,5-diphenyl tetrazolium bromide (MTT) assay. MTT serves as a substrate for mitochondrial dehydrogenases, and only viable functional mitochondria are capable of cleaving MTT to generate the colored product formazan. MTT solution was prepared by dissolving MTT at a concentration of 5 mg/ml in phosphate-buffered saline (PBS) composed of (mM) NaCl (137), KCl (2.68), Na2HPO4 (10), KH2PO4 (1.76), pH 7.4, and filtering the solution through Millipore filter. Following treatments/assays, cells on filters were washed with fresh and warm (37° C.) PBS and incubated for 60 min at 37° C. in MTT solution. At the completion of incubation, cells were washed with PBS, and solubilized in isopropanol containing 0.1 M HCl plus 1% Triton X-100. Lysates were mixed by pipetting to dissolve the reduced MTT crystals (during which time the colorless solution turned purple) and were spinned at 10,000 g for 5 min. The solubilized formazan was measured by determining absorption at 570 nm. Background absorbance at 690 nm was subtracted for each sample, and values were normalized to OD570 (optic density) of control unperturbed cells.

[2] = hECE cells in steroid-free medium
[3] = Steroid-Free Medium + 10 nM 17β-Estradiol + substance at the concentration given
[4] = Steroid-Free Medium + substance, 3 to 4 repeats
[5] = hECE cells, steroid-free medium + estradiol, 1 μM for 30 min added to the luminal solution

Compound	hECE cell vitality (MTT staining normalized to OD570 of control unperturbed cells), Baseline (hECE cells; [3])	hECE cell vitality (MTT staining normalized to OD570 of control unperturbed cells), 30 min pHo (hECE cells; [3])	hECE cell vitality (MTT staining normalized to OD570 of control unperturbed cells), Baseline (hECE cells; [4])	hECE cell vitality (MTT staining normalized to OD570 of control unperturbed cells), 30 min pHo (hECE cells; [4])	effect of co-treatment on estrogen-induced decrease in luminal pHo [1]	effect on contra-luminal pHo ([1]; hECE cells)	effect on estrogen-induced acidification of the luminal pHo ([1]; hECE cells)	other results
O=C(O)CN(CCOCCOCCN(CC(=O)O)CC(=O)O)CC(=O)O [EGTA]	–	–	–	–	–	–	–	effect on contra-luminal solution ([1]; hECE cells, 1.2 mM EGTA plus 1.2 mM CdCl2 in luminal and contra-luminal solutions): acidification of the contra-luminal solution; effect on luminal acidification ([1]; hECE cells, 1.2 mM EGTA plus 1.2 mM CdCl2 in luminal and contra-luminal solutions (extracellular calcium <0.1 mM)): blocked the luminal acidification; luminal pHo and contra-luminal pHo ([1]; hECE cells, following treatment with 1.2 mM EGTA (plus 1.2 mM CdCl2)): ~7.2
C[C@]12CC[C@H]3[C@@H](CCC4=CC(=O)CC[C@@]43C)[C@@H]1CC[C@@H]2O [testosterone]	–	–	–	–	–	–	–	effect on luminal pHo (specificity of estrogen effect) [1, 2]: no effect
[Cl][Cd][Cl] [CdCl2]	95 ± 2%	95 ± 3%	94 ± 2%	95 ± 9%	–	–	–	–
C[C@]12CC[C@@H]3c4ccc(O)cc4C[C@@H](CCCCCCCCC[S+]([O-])CCCC(F)(F)C(F)(F)F)[C@H]3[C@@H]1CC[C@@H]2O (some centres unmarked) [ICI-182780]	89 ± 9%	93 ± 6%	95 ± 8%	95 ± 3%	blocked	Neither tamoxifen ICI-182780 or progesterone had any appreciable effect	–	effect on luminal pHo, alone [1, 2]: no effect
CC/C(=C(\c1ccccc1)c1ccc(OCCN(C)C)cc1)c1ccccc1 [tamoxifen]	95 ± 3%	96 ± 4%	93 ± 4%	95 ± 4%	no significant effect	Neither tamoxifen ICI-182780 or progesterone had any appreciable effect	–	luminal pHo ([1]; hECE cells in steroid-free medium, tamoxifen 10 μM alone, 24 hrs, decreased from 7.24±0.02, p<0.01): 7.15±0.02
CO/C1=C\C(C)=C\[C@@H](C)[C@@H](O)[C@@H](C)C/C(C)=C/C=C/[C@H](OC)[C@@H]([C@@H](C)[C@@H](O)[C@H](C)[C@@]2(O)C[C@@H](O)[C@H](C)[C@@H](C(C)C)O2)OC1=O [bafilomycin A1]	93 ± 7%	92 ± 5%	94 ± 3%	95 ± 4%	–	–	blocked	effect on the contra-luminal or luminal pHo ([1]; hECE cells, steroid-free medium + estradiol, 1 μM for 30 min added to the contra-luminal solution): no effect; effect on luminal pHo [1, 5]: significantly blocked the estrogen-decrease in luminal pHo; effect on the contra-luminal pHo [1, 5]: little effect
C[C@@H]1O[C@@H](O[C@H]2C[C@@H](O)[C@]3(CO)[C@H]4[C@H](O)C[C@]5(C)[C@@H](C6=CC(=O)OC6)CC[C@]5(O)[C@@H]4CC[C@]3(O)C2)[C@H](O)[C@H](O)[C@H]1O [ouabain]	62 ± 4^a,b %	74 ± 9^b %	71 ± 8^a,b %	69 ± 9^b %	–	–	attenuated mildly estradiol effect	effect on luminal pHo in cells grown in steroid-free medium ([1]; hECE cells, no estradiol, ouabain 1 μM, 30 min, added to contra-luminal solution): mild alkalinization of luminal pHo; effect on MTT cleavage (cell viability) (hECE cells; hECE cells, treatments of Table 1): decreased MTT incorporation and staining
CC/C(=C(/CC)c1ccc(O)cc1)c1ccc(O)cc1 [diethylstilbestrol]	–	–	–	–	–	–	–	effect on luminal pHo (specificity of estrogen effect) [1, 2]: could mimic 17β-estradiol decrease in luminal pHo
COc1ccc2[nH]c([S+]([O-])Cc3ncc(C)c(OC)c3C)nc2c1 (centres unmarked) [omeprazol]	91 ± 6%	95 ± 4%	92 ± 5%	95 ± 4%	–	–	no effect	–
CC(=O)[C@H]1CC[C@H]2[C@@H]3CCC4=CC(=O)CC[C@]4(C)[C@H]3CC[C@]12C [progesterone]	91 ± 6%	95 ± 4%	95 ± 5%	95 ± 4%	no significant effect	Neither tamoxifen ICI-182780 or progesterone had any appreciable effect	–	effect on luminal pHo, alone [1, 2]: no effect
